Consider three molecules from patent US20100172845A1, “COMPOSITIONS AND METHODS FOR TREATING MYCOBACTERIAL INFECTIONS” (BOARD OF REGENTS OF THE UNIVERSITY OF TEXAS SYSTEM, priority 2007, published 2010).

Entries after “also recorded” stand apart in the source; their conditions may differ.

In data set [1] the test system is Erdman strain of MTB. The data set can be described thus: Effect of surfactants on corded state and number of MTB in vitro (microscopy, acid-fast staining). The format is cell-based, Mycobacterium tuberculosis. The note with it: for bactericidal action on MTB: 1% (wt/vol.), OG 24 hr, DDM 2 hr.
The conditions of data set [2]: mouse, in vivo.
In data set [3] the test system is MTB. The data set can be described thus: Growth of MTB in the presence of surfactant. It is filed as cell-based, Mycobacterium tuberculosis. The note with it: 0.3% surfactant.
[4] abbreviates: 1% (wt/vol.) surfactant, 2 hr exposure.
Where [5] appears, read: 1% (wt/vol.) surfactant, 30 min exposure.

For `CCCCCCCCCCCCO[C@@H]1O[C@H](CO)[C@@H](O[C@H]2O[C@H](CO)[C@@H](O)[C@H](O)[C@H]2O)[C@H](O)[C@H]1O` [DDM, n-dodecyl-β-D-maltoside], in data set [1] (setting [4]), the elimination of bacteria result is on record as “elimination of most of the bacteria” and the “loss / reduction of cording of MTB” value was “reduce cording to a similar extent of OG after 24 hr exposure; also recorded: rapid loss of cording”. Also, the “bactericidal action on MTB” value in data set [1] was “bactericidal”. Also, in data set [2], the “body weight versus control animals” value is on record as “no difference in the body weight”; the “histological examination of spleens and livers” value is “did not reveal any visible changes”; the “histopathological differences of lung, liver and spleen tissues versus control” value is “no identifiable histopathological differences”; the “leukocyte count and cytologic composition of the lavage fluid” value is reported as “no change were found”. Further, the “tolerability by the lungs” value in data set [2] was “well tolerated by the lungs”.
Turning to `CCCCCCCCCCCCCCCC(=O)OC[C@H](COP(=O)([O-])OCC[N+](C)(C)C)OC(=O)CCCCCCCCCCCCCCC` [DPPC, 1,2-dipalmitoyl-sn-3-glycerophosphoryl choline, reference compound], in data set [1] (1% surfactant, over the time period of the study), the “reversal of cording of corded MTB preparation” value is on record as “did not reverse cording”.
Take `CCCCCCCCO[C@@H]1O[C@H](CO)[C@@H](O)[C@H](O)[C@H]1O` [OG, n-octyl-β-D-glucoside]: in data set [1] (setting [5]), the “number of bacteria in the background (higher power view)” value is recorded as “significant loss in the number of bacteria in the background” and the “reversal of aggregation / number of cords of MTB” value is given as “major reduction in the number of the cords; also recorded: rapidly reversed aggregation of MTB”. Further, the “decrease in the corded state of MTB” value in data set [1] (1% (wt/vol.) surfactant, 24 hr incubation) was “more pronounced”. Further, the “bacteria eliminated (50× image)” value in data set [1] (1% (wt/vol.) surfactant, within 24 hours of treatment) is recorded as “over 90%”. Besides, the “bactericidal action on MTB” value in data set [1] was “acts as a bacteriocide; also recorded: bactericidal”. Besides, the “growth of MTB and mycolic acid coat” value in data set [3] was “will grow in the presence of 0.3% OG but are not surrounded by their extensive coat of mycolic acid”. For the same molecule, in data set [2], the “body weight versus control animals” value was “no difference in the body weight”; the “histological examination of spleens and livers” value was “did not reveal any visible changes”; the “histopathological differences of lung, liver and spleen tissues versus control” value is listed as “no identifiable histopathological differences”; the “leukocyte count and cytologic composition of the lavage fluid” value is recorded as “no change were found”. Moreover, the “tolerability by the lungs” value in data set [2] is on record as “well tolerated by the lungs”.
